# Columns and labels:
# [1] = target: T1, human recombinant MLK3 protein (Homo sapiens, UniProt Q16584); test: MLK3 kinase activity assay (Eurofins, gamma-33P-ATP, filtermat scintillation counting); assay type: biochemical; settings: human recombinant MLK3, 120 minutes at room temperature
# T1 construct: purchased Eurofins
# Procedure: (§1) Compounds 1 to 119 synthesized in Example 1 according to the present disclosure were assayed for inhibitory activity against MLK3/LRRK2 enzymes and anticancer activity against HepG2/HS746T cancer cells, and the results are summarized in Table 1, below.
# (§2) Inhibitory activity against MLK3 and LRRK2 enzymes was evaluated in Eurofins. In brief, human recombinant MLK3 protein was mixed with the compounds in a reaction buffer (8 mM MOPS (pH 7.0), 0.2 mM EDTA, 0.33 mg/mL myelin basic protein, 5 mM DTT) to which a mixture of 10 mM magnesium acetate and gamma-33P-ATP was then added before incubation at room temperature for 120 minutes. Afterward, the reaction was terminated with 0.5% phosphoric acid. Ten μL of the total mixture was spotted onto a P30 filtermat which was then washed four times for 4 minutes with 0.425% phosphoric acid and once in methanol prior to scintillation counting. Values for the activity of MLK3 were expressed as % of the control. For the activity of LRRK2, human recombinant LRRK2 protein was mixed with the compounds in a reaction buffer (50 mM HEPES (pH 8.0), 0.2 mM EDTA, 0.01% Brij-35, 1% (w/v) BSA, 5 mM DTT, 250 uM substrate peptide RLGRDKYKTLRQIRQ) and then reacted with a mixture of 10 mM magnesium acetate and gamma-33P-ATP at room temperature for 40 minutes. Afterward, the reaction was terminated with 0.5% phosphoric acid. Ten μL of the total mixture was spotted onto a P30 filtermat which was then washed four times for 4 minutes with 0.425% phosphoric acid and once in methanol prior to scintillation counting. Values for the activity of LRRK2 were expressed as % of the control.
# [2] = target: T2, human recombinant LRRK2 protein (Homo sapiens, UniProt Q5S007); test: LRRK2 kinase activity assay (Eurofins, gamma-33P-ATP, filtermat scintillation counting); assay type: biochemical; settings: human recombinant LRRK2, 40 minutes at room temperature
# T2 construct: purchased Eurofins
# T2 sequence (Q5S007 whole entry): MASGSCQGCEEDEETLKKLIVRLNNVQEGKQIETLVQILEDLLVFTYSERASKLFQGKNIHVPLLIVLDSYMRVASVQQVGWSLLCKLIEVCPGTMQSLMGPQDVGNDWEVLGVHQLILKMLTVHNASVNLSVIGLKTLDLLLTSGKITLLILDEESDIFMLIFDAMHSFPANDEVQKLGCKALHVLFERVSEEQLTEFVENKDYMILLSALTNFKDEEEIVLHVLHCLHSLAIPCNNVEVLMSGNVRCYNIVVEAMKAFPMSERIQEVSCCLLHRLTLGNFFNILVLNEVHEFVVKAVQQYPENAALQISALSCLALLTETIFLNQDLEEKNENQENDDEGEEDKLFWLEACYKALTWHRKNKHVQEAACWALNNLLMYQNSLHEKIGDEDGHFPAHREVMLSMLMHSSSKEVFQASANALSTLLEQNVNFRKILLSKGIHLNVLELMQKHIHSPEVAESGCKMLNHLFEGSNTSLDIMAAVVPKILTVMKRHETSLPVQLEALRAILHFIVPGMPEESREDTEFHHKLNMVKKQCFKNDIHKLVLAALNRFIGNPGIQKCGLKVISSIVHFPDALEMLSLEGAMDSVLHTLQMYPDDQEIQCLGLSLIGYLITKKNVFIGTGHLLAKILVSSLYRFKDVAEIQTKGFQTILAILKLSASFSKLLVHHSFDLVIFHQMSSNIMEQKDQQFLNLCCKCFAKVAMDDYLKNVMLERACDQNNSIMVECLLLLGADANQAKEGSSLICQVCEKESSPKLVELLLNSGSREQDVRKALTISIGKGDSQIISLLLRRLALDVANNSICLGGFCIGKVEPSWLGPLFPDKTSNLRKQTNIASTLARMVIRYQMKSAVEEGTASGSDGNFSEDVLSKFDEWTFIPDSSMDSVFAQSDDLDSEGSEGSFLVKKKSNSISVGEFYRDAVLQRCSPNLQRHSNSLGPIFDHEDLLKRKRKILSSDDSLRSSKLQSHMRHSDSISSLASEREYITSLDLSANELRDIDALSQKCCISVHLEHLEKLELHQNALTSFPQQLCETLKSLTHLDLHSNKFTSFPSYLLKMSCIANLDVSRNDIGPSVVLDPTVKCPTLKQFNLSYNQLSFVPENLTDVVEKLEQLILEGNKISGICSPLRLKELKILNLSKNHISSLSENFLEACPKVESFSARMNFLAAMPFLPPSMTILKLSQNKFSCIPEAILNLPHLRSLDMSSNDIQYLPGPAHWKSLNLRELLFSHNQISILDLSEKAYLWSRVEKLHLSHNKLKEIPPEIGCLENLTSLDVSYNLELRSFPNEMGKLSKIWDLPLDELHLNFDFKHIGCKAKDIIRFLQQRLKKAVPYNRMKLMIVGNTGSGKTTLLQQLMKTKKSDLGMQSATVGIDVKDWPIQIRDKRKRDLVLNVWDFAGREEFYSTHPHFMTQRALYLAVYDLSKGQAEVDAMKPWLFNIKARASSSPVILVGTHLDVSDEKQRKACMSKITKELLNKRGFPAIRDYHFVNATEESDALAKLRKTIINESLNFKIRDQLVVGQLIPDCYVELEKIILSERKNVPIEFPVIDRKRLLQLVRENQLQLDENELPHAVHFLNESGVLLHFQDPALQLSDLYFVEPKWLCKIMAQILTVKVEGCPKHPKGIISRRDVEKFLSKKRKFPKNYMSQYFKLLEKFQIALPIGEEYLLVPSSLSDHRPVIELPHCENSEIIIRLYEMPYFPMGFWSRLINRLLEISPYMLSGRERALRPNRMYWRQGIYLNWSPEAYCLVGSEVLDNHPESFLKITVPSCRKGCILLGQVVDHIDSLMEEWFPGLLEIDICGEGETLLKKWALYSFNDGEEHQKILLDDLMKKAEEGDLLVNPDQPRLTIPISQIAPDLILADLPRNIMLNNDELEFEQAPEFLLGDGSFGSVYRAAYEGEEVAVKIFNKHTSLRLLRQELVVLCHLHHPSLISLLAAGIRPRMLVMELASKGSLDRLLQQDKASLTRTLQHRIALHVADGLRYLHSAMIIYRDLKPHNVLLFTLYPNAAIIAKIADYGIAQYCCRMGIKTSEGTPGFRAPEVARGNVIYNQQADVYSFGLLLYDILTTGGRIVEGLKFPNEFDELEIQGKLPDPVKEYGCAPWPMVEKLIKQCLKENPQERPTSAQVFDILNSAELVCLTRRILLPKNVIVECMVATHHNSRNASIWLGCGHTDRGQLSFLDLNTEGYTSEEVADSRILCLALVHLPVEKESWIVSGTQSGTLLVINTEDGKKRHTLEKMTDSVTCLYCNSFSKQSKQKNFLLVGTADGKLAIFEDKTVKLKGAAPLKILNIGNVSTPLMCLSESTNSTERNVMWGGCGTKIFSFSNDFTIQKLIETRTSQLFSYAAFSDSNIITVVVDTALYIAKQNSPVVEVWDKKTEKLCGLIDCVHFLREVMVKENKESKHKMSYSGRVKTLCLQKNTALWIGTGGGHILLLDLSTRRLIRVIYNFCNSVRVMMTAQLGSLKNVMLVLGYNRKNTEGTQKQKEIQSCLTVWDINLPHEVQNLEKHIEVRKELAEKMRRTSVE
# Procedure: as §1, §2
# [3] = system: HepG2 cancer cells; test: Anticancer activity, cell viability by CCK-8, HepG2; assay type: cell-based; settings: HepG2, 10 μM, 72 hours
# Procedure: (§3) Compounds 1 to 119 synthesized in Example 1 according to the present disclosure were assayed for inhibitory activity against MLK3/LRRK2 enzymes and anticancer activity against HepG2/H[…] cancer cells, and the results are summarized in Table 1, below. Assay for anticancer activity was conducted as follows. HepG2 and H[…] cancer cells were purchased from the Korean Cell Line Bank and cultured according to the instruction provided thereby. One hundred μL of a culture of the cells were seeded at a density of 4,000 cells/well into 96-well plates. After 24 hours, the cells were treated with the compounds for 72 hours. Then, cell viability was assayed using CCK-8 and expressed as % of the control.
# [4] = system: HS746T cancer cells; test: Anticancer activity, cell viability by CCK-8, HS746T; assay type: cell-based; settings: 72 hours
# Procedure: as §3
# T1 sequence (Q16584 whole entry): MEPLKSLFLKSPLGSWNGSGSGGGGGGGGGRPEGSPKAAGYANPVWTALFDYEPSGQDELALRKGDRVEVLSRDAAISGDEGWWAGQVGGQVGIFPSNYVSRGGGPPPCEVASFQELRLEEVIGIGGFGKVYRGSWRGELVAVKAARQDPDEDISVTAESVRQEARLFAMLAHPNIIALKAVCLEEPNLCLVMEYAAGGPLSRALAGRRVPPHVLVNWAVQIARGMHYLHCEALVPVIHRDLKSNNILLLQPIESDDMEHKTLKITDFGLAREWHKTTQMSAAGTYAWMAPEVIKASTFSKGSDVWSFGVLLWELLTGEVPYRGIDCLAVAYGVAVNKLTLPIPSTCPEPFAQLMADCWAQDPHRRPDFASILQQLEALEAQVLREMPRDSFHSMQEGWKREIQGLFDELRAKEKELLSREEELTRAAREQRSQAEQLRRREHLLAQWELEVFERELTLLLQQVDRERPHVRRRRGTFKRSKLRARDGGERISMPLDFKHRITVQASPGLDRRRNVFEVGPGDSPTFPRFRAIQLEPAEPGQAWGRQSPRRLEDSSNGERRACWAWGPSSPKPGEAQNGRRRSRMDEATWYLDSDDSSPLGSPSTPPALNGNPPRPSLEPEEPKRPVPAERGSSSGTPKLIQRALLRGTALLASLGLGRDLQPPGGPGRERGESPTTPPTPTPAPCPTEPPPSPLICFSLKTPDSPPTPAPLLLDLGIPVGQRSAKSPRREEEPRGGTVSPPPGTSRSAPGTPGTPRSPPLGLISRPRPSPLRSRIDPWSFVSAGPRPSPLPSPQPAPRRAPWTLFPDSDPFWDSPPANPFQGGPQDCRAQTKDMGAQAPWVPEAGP
SMILES,IC50 [1] [µM],IC50 [2] [µM],Cell viability (% of Con. 10 μM) HepG2 [3],Cell viability (% of Con. 10 μM) HS746T [4]
"CP(C)(=O)c1ccccc1Nc1nc(NCc2ccccc2)ncc1Cl [compound 14, (2-((2-(Benzylamino)-5-chloropyrimidin-4-yl)amino)phenyl) dimethylphosphine oxide]",> 1,> 1,108 % of Con.,110 % of Con.
"CP(C)(=O)c1ccccc1Nc1nc(Nc2cccc3cc[nH]c23)ncc1Cl [compound 71, (2-((2-((1H-Indol-7-yl)amino)-5-chloropyrimidin-4-yl)amino)phenyl)dimethylphosphine oxide]",0.01 to 0.1,0.001 to 0.01,63 % of Con.,83 % of Con.
"Cc1nc2ccc(Nc3ncc(Cl)c(Nc4ccccc4P(C)(C)=O)n3)cc2s1 [compound 17, (2-((5-Chloro-2-((2-methylbenzo[d]thiazol-6-yl)amino)pyrimidin-4-yl)amino)phenyl)dimethylphosphine oxide]",0.001 to 0.01,0.001 to 0.01,35 % of Con.,17 % of Con.
"CP(C)(=O)c1ccccc1Nc1nc(Nc2ccc3[nH]c(C(F)(F)F)nc3c2)ncc1Cl [compound 75, (2-((5-Chloro-2-((2-(trifluoromethyl)-1H-benzo[d]imidazol-5-yl)amino)pyrimidin-4-yl)amino)phenyl)dimethylphosphine oxide]",0.01 to 0.1,0.001 to 0.01,28 % of Con.,21 % of Con.
"CP(C)(=O)c1ccccc1Nc1nc(Nc2cccc3[nH]ccc23)ncc1Cl [compound 68, (2-((2-((1H-Indol-4-yl)amino)-5-chloropyrimidin-4-yl)amino)phenyl)dimethylphosphine oxide]",0.01 to 0.1,0.001 to 0.01,43 % of Con.,64 % of Con.
"Cn1cc(-c2n[nH]c3ccc(Nc4ncc(Cl)c(Nc5ccccc5P(C)(C)=O)n4)cc23)cn1 [compound 94, (2-((5-Chloro-2-((3-(1-methyl-1H-pyrazol-4-yl)-1H-indazol-5-yl)amino)pyrimidin-4-yl)amino)phenyl)dimethylphosphine oxide]",0.001 to 0.01,0.001 to 0.01,30 % of Con.,15 % of Con.
"CP(C)(=O)c1ccccc1Nc1nc(Nc2ccc3c(c2)CCNC3)ncc1Cl [compound 49, (2-((5-Chloro-2-((1,2,3,4-tetrahydroisoquinolin-6-yl)amino)pyrimidin-4-yl)amino)phenyl)dimethylphosphine oxide]",0.001 to 0.01,0.001 to 0.01,31 % of Con.,0.3 % of Con.
"Cc1ccc(-c2n[nH]c3ccc(Nc4ncc(Cl)c(Nc5ccccc5P(C)(C)=O)n4)cc23)cc1Cl [compound 112, (2-((5-Chloro-2-((3-(3-chloro-4-methylphenyl)-1H-indazol-5-yl)amino)pyrimidin-4-yl)amino)phenyl)dimethylphosphine oxide]",0.001 to 0.01,0.01 to 0.1,6 % of Con.,7 % of Con.
"CP(C)(=O)c1ccccc1Nc1nc(Nc2ccc3[nH]nc(-c4ccc(Cl)c(C(F)(F)F)c4)c3c2)ncc1Cl [compound 111, (2-((5-Chloro-2-((3-(4-chloro-3-(trifluoromethyl)phenyl)-1H-indazol-5-yl)amino)pyrimidin-4-yl)amino)phenyl)dimethylphosphine oxide]",0.001 to 0.01,0.01 to 0.1,7 % of Con.,7 % of Con.
"CP(C)(=O)c1ccccc1Nc1nc(Nc2ccc3ncccc3c2)ncc1Cl [compound 18, (2-((5-Chloro-2-(quinolin-6-ylamino)pyrimidin-4-yl)amino)phenyl) dimethylphosphine oxide]",0.01 to 0.1,0.001 to 0.01,32 % of Con.,16 % of Con.
"Cc1cccc2sc(Nc3ncc(Cl)c(Nc4ccccc4P(C)(C)=O)n3)nc12 [compound 27, (2-((5-Chloro-2-((4-methylbenzo[d]thiazol-2-yl)amino)pyrimidin-4-yl)amino)phenyl)dimethylphosphine oxide]",0.1 to 1,> 1,81 % of Con.,74 % of Con.
"CP(C)(=O)c1ccccc1Nc1nc(Nc2cnc3ccccc3c2)ncc1Cl [compound 19, (2-((5-Chloro-2-(quinolin-3-ylamino)pyrimidin-4-yl)amino)phenyl) dimethylphosphine oxide]",0.01 to 0.1,0.01 to 0.1,34 % of Con.,25 % of Con.
"CC(C)n1cc(-c2n[nH]c3ccc(Nc4ncc(Cl)c(Nc5ccccc5P(C)(C)=O)n4)cc23)cn1 [compound 93, (2-((5-Chloro-2-((3-(1-isopropyl-1H-pyrazol-4-yl)-1H-indazol-5-yl)amino)pyrimidin-4-yl)amino)phenyl)dimethylphosphine oxide]",0.001 to 0.01,0.001 to 0.01,42 % of Con.,18 % of Con.
"Cc1cc(Nc2ncc(Cl)c(Nc3ccccc3P(C)(C)=O)n2)ccn1 [compound 10, (2-((5-Chloro-2-((2-methylpyridin-4-yl)amino)pyrimidin-4-yl)amino)phenyl)dimethylphosphine oxide]",> 1,> 1,91 % of Con.,120 % of Con.
"CP(C)(=O)c1ccccc1Nc1nc(NCc2ccc(F)cc2)ncc1Cl [compound 12, (2-((5-Chloro-2-((4-fluorobenzyl)amino)pyrimidin-4-yl)amino)phenyl)dimethylphosphine oxide]",> 1,> 1,85 % of Con.,97 % of Con.
"CC(C)C1c2cc(Nc3ncc(F)c(NC4CCN(S(C)(=O)=O)CC4)n3)ccc2CCN1C(=O)C(F)(F)F (centres unmarked) [compound 58, 2,2,2-Trifluoro-1-(7-((5-fluoro-4-((1-(methylsulfonyl)piperidin-4-yl)amino)pyrimidin-2-yl)amino)-1-isopropyl-3,4-dihydroisoquinolin-2(1H)-yl)ethan-1-one]",> 1,0.1 to 1,83 % of Con.,85 % of Con.
"CP(C)(=O)c1ccccc1Nc1nc(N2CCc3c(N)cccc3C2)ncc1Cl [compound 9, (2-((2-(5-Amino-3,4-dihydroisoquinolin-2(1H)-yl)-5-chloropyrimidin-4-yl)amino)phenyl)dimethylphosphine oxide]",> 1,> 1,110 % of Con.,104 % of Con.
"CP(C)(=O)c1ccccc1Nc1nc(Nc2ccc3c(c2)C(=O)NCC3)ncc1Cl [compound 41, 7-((5-Chloro-4-((2-(dimethylphosphoryl)phenyl)amino)pyrimidin-2-yl)amino)-3,4-dihydroisoquinolin-1(2H)-one]",0.001 to 0.01,0.01 to 0.1,26 % of Con.,33 % of Con.
"CC1(C)CCC(C)(C)c2cc(Nc3ncc(Cl)c(Nc4ccccc4P(C)(C)=O)n3)ccc21 [compound 7, (2-((5-Chloro-2-((5,5,8,8-tetramethyl-5,6,7,8-tetrahydronaphthalen-2-yl)amino)pyrimidin-4-yl)amino)phenyl)dimethylphosphine oxide]",0.1 to 1,0.1 to 1,75 % of Con.,103 % of Con.
"CC(=O)N1CC=C(c2n[nH]c3ccc(Nc4ncc(Cl)c(Nc5ccccc5P(C)(C)=O)n4)cc23)CC1 [compound 99, 1-(4-(5-((5-Chloro-4-((2-(dimethylphosphoryl)phenyl)amino)pyrimidin-2-yl)amino)-1H-indazol-3-yl)-3,6-dihydropyridin-1(2H)-yl)ethan-1-one]",0.001 to 0.01,0.001 to 0.01,26 % of Con.,9 % of Con.

# From patent US20240270698A2, “NOVEL PYRIMIDINE DERIVATIVE AND USE THEREOF” (KOREA RESEARCH INSTITUTE OF CHEMICAL TECHNOLOGY, priority 2019, published 2024)
